According to ChEMBL document CHEMBL5500414 (J Med Chem, 2024):

Tests used:
BCL2A1/BID [1] = target: T1, BCL2A1/BID (Homo sapiens, UniProt Q16548)
T1 sequence (Q16548 whole entry): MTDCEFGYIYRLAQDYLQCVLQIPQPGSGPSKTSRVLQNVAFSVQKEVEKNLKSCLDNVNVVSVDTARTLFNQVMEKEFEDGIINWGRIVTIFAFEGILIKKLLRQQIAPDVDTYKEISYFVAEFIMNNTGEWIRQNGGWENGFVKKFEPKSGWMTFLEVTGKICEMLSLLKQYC
T1 sequence (P55957 whole entry): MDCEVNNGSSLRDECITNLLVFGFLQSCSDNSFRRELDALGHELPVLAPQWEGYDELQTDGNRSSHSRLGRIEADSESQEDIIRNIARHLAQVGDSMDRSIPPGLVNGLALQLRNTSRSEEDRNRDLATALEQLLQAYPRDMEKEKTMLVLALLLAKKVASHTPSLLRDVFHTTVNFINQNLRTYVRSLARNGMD
Description: Inhibition of BFL-1 (unknown origin)/FITC-conjugated Bid BH3 peptide (unknown origin) interaction by fluorescence polarization assay

Pfeiffer = assay: Antiproliferative activity against human Pfeiffer cells expressing high BCL-2/BFL-1 assessed as cell viability measured after 72 hrs by Cell Counting Kit-8 assay
MV4-11 = assay: Antiproliferative activity against human MV4-11 cells expressing high BCL-2 assessed as cell viability measured after 72 hrs by Cell Counting Kit-8 assay; details: MV4-11, 72 h
BCL2A1/BID [2] = target: T1, BCL2A1/BID; remark: listed apart in the source
[3] = target: Induced myeloid leukemia cell differentiation protein Mcl-1/BH3-interacting domain death agonist (Homo sapiens, UniProt Q07820)
Sequence of Induced myeloid leukemia cell differentiation protein Mcl-1/BH3-interacting domain death agonist (Q07820 whole entry, one chain of several, the tested form may be a part): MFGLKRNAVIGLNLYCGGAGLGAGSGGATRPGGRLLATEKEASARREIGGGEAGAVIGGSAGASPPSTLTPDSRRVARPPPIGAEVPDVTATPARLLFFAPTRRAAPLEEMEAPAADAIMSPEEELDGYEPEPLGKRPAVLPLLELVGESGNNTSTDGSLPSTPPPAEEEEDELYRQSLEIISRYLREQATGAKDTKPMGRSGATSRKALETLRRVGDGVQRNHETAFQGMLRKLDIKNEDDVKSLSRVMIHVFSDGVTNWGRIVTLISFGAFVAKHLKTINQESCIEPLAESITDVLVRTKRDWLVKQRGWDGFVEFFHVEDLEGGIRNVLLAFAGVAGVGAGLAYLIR
Description: Inhibition of MCL-1 (unknown origin)/FAM-BID (unknown origin) interaction measured by fluorescence polarization assay

Bcl-2-related protein A1 [4] = target: Bcl-2-related protein A1 (Homo sapiens, UniProt Q16548, C55A); assay: Binding affinity to BFL-1 C55A mutant (unknown origin) assessed as inhibition constant by fluorescence polarization assay
Sequence of Bcl-2-related protein A1 (Homo sapiens, UniProt Q16548, C55A) (Q16548 whole entry C55A): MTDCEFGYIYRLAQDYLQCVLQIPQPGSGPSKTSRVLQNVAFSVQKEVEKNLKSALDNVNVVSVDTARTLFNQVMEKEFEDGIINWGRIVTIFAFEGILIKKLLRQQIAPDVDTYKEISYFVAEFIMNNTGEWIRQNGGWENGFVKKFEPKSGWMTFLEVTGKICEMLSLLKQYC

[5] = Glutathione reactivity assessed as half life
Bcl-2-related protein A1 [6] = target: T2, Bcl-2-related protein A1 (Homo sapiens, UniProt Q16548); assay: Binding affinity to wild type human BFL-1 assessed as inhibition constant by SPR assay
T2 sequence (Q16548 whole entry): T1 sequence (Q16548 whole entry)

[7] = target: Induced myeloid leukemia cell differentiation protein Mcl-1 (Homo sapiens, UniProt Q07820); assay: Binding affinity to MCL-1 (unknown origin) assessed as inhibition constant by time-resolved fluorescence resonance energy transfer binding affinity assays
Sequence of Induced myeloid leukemia cell differentiation protein Mcl-1 (Q07820 whole entry): as the sequence (Q07820 whole entry, one chain of several, the tested form may be a part) above

Structure (SMILES) | Ki (BCL2A1/BID [2]) [nM] | also measured
CN1CCN(C2=C(Cl)C(=O)N(c3ccc(Cl)c(Cl)c3)C2=O)CC1 |  | IC50 (BCL2A1/BID [1]): 400 nM
CCOC(=O)CS(=O)(=O)c1nc(-c2ccc(F)cc2)cc(C(F)(F)F)n1 |  | IC50 (BCL2A1/BID [1]): 2600 nM
CC(C)(C)c1ccc(CN2CCN(S(=O)(=O)Nc3ccc(SCCc4ccccc4)cc3C(=O)O)CC2)cc1 | 645 | IC50 (Pfeiffer): 21300 nM; IC50 (MV4-11): 46200 nM
C=CC(=O)N1CCN(c2c3ccc(-c4cccc(F)c4)cc3nn2Cc2ccccc2)CC1 | 465 | 
CC(=O)N[C@@H](Cc1c[nH]c2ccccc12)C(=O)NCCSSCCN(C)C |  | EC50 (BCL2A1/BID [1]): 1300 nM
C=CC(=O)Nc1ccc2c(c1)CCC(CN1CCN(Cc3cccc(C(=O)O)c3)CC1)=C2c1ccc(Cl)cc1 | > 20000 | 
C=CC(=O)Nc1ccc2c(c1)CCC(CN1CCN(c3ccc(C(=O)O)cc3-c3ccccc3)CC1)=C2c1ccc(Cl)cc1 | > 20000 | 
C=CC(=O)Nc1ccc2c(c1)CCC(CN1CCN(c3ccc(C(=O)O)cc3)CC1)=C2c1ccccc1 | 781 | 
C=CC(=O)Nc1ccc2c(c1)CCC(CN1CCN(c3ccccc3C(=O)O)CC1)=C2c1ccc(Cl)cc1 | > 20000 | 
C=CC(=O)Nc1ccc2c(c1)CCC(CN1CCN(c3ccc(C(=O)NS(=O)(=O)c4ccccc4)cc3)CC1)=C2c1ccc(Cl)cc1 | > 20000 | 
Nc1ccc2c(c1)CCC(CN1CCN(c3ccc(C(=O)NS(=O)(=O)c4ccc(NCC5CCOCC5)c([N+](=O)[O-])c4)c(Oc4cnc5[nH]ccc5c4)c3)CC1)=C2c1ccc(Cl)cc1 | 1170 | IC50 (Pfeiffer): 8900 nM; Ki [3]: 4760 nM; IC50 (MV4-11): 4420 nM
C=CC(=O)Nc1ccc2c(c1)CCC(CN1CCN(c3ccc(C(=O)O)cc3)CC1)=C2c1ccc(C#N)cc1 | > 20000 | 
C=CC(=O)N(C)c1ccc2c(c1)CCC(CN1CCN(c3ccc(C(=O)O)cc3)CC1)=C2c1ccc(Cl)cc1 | 373 | 
C=CC(=O)Nc1ccc2c(c1)CCC(CN1CCN(c3ccc(C(=O)O)cc3)CC1)=C2c1cccc(Cl)c1 | > 20000 | 
C=CC(=O)Nc1ccc2c(c1)CCC(CN1CCN(c3ccc(C(=O)O)cc3)CC1)=C2c1ccc(NC(C)=O)cc1 | > 20000 | 
C=CC(=O)Nc1ccc2c(c1)CCC(CN1CCN(c3ccc(C(=O)O)cc3)CC1)=C2c1cccc(OC)c1 | 723 | 
C=CC(=O)Nc1ccc2c(c1)CCC(CN1CCN(c3ccc(C(=O)O)cc3)CC1)=C2c1ccc(Cl)cc1Cl | 256 | 
C=CC(=O)Nc1ccc2c(c1)CCC(CN1CCN(c3ccc(C(=O)O)c(Oc4cnc5c(ccn5C)c4)c3)CC1)=C2c1ccc(Cl)cc1 | 145 | 
C=CC(=O)Nc1ccc2c(c1)CCC(CN1CCN(c3cccc(C(=O)O)c3)CC1)=C2c1ccc(Cl)cc1 | > 20000 | 
C=CC(=O)Nc1ccc2c(c1)CCC(CN1CCN(c3ccc(C(=O)O)cc3)CC1)=C2c1ccc(Cl)cc1F | 361 | 
O=C(CCl)Nc1ccc2c(c1)CCC(CN1CCN(c3ccc(C(=O)O)cc3)CC1)=C2c1ccc(Cl)cc1 | 997 | 

Structure (SMILES) | Ki (BCL2A1/BID [2]) [nM] | also measured
C=CC(=O)Nc1ccc2c(c1)CCC(CN1CCN(c3ccc(C(=O)O)cc3)CC1)=C2c1ccc(OC)cc1 | > 20000 | 
C=CC(=O)Nc1ccc2c(c1)CCC(CN1CCN(c3ccc(C(=O)O)c(Oc4cnc5[nH]ccc5c4)c3)CC1)=C2c1ccc(Cl)cc1CC | 105 | Ki (Bcl-2-related protein A1 [4]): 1380 nM; IC50 (Pfeiffer): 6920 nM; Ki [3]: 1260 nM; half-life [5]: 256 min; IC50 (MV4-11): 12600 nM; Ki (Bcl-2-related protein A1 [6]): 1950 nM
C=CC(=O)Nc1ccc2c(c1)CCC(CN1CCN(c3ccc(C(=O)NS(=O)(=O)c4ccc(NCC5CCOCC5)c([N+](=O)[O-])c4)c(Oc4cnc5[nH]ccc5c4)c3)CC1)=C2c1ccc(Cl)cc1 | > 20000 | IC50 (Pfeiffer): 7500 nM; Ki [3]: 4160 nM; IC50 (MV4-11): 1790 nM
C=CC(=O)Nc1ccc2c(c1)CCC(CN1CCN(c3ccc(C(=O)O)cc3)CC1)=C2c1ccccc1OC | > 20000 | 
C=CC(=O)Nc1ccc2c(c1)CCC(CN1CCN(c3ccc(C(=O)O)cc3)CC1)=C2c1cccc2cc[nH]c12 | > 20000 | 
C=CC(=O)Nc1ccc2c(c1)CCC(CN1CCN(c3ccc(C(=O)O)cc3)CC1)=C2c1cccc(O)c1 | > 20000 | 
C=CC(=O)N(c1ccc2c(c1)CCC(CN1CCN(c3ccc(C(=O)O)cc3)CC1)=C2c1ccc(Cl)cc1CC)C(C)C | 140 | 
CCc1cc(Cl)ccc1C1=C(CN2CCN(c3ccc(C(=O)NS(=O)(=O)c4ccc(NCC5CCOCC5)c([N+](=O)[O-])c4)c(Oc4cnc5[nH]ccc5c4)c3)CC2)CCc2cc(N)ccc21 | 1130 | IC50 (Pfeiffer): 8050 nM; Ki [3]: 3300 nM; IC50 (MV4-11): 3690 nM
C=CC(=O)N(C)Cc1ccc2c(c1)CCC(CN1CCN(c3ccc(C(=O)O)cc3)CC1)=C2c1ccc(Cl)cc1 | 326 | 
C=CC(=O)Nc1ccc2c(c1)CCC(CN1CCN(c3ccc(C(=O)O)cc3)CC1)=C2c1ccc(Cl)cc1C | 251 | 
C=CC(=O)Nc1ccc2c(c1)CCC(CN1CCN(c3ccc(C(=O)O)cc3)CC1)=C2c1cnn(C)c1 | > 20000 | 
C=CC(=O)Nc1ccc2c(c1)CCC(CN1CCNCC1)=C2c1ccc(Cl)cc1 | > 20000 | 
C=CC(=O)N(CC)c1ccc2c(c1)CCC(CN1CCN(c3ccc(C(=O)O)cc3)CC1)=C2c1ccc(Cl)cc1CC | 110 | IC50 (Pfeiffer): 22900 nM; IC50 (MV4-11): 33500 nM
C=CC(=O)Nc1ccc2c(c1)CCC(CN1CCN(c3ccc(C(=O)O)c(N(C)CCCO)c3)CC1)=C2c1ccc(Cl)cc1 | > 20000 | 
C=CC(=O)Nc1ccc2c(c1)CCC(CN1CCN(c3ccc(C(=O)NS(=O)(=O)c4ccc(NCC5CCOCC5)c([N+](=O)[O-])c4)c(Oc4cnc5[nH]ccc5c4)c3)CC1)=C2c1ccc(Cl)cc1CC | 949 | IC50 (Pfeiffer): 7280 nM; Ki [3]: 4510 nM; IC50 (MV4-11): 2350 nM
C=CC(=O)Nc1ccc2c(c1)CCC(CN1CCN(c3ccc(C(=O)O)cc3)CC1)=C2C1CC1 | > 20000 | 
C=CC(=O)Nc1ccc2c(c1)CCC(CN1CCN(c3ccc(C(=O)O)c(N(C)CCCN(C)C)c3)CC1)=C2c1ccc(Cl)cc1 | 774 | 
C=CC(=O)Nc1ccc2c(c1)CCC(CN1CCN(Cc3ccc(C(=O)O)cc3)CC1)=C2c1ccc(Cl)cc1 | > 20000 | 
C=CC(=O)Nc1ccc2c(c1)CCC(CN1CCN(c3ccc(C(=O)O)cc3)CC1)=C2c1ccncc1 | 5340 | 
C=CC(=O)Nc1ccc2c(c1)CCC(CN1CCN(c3ccc(C(=O)O)c(-c4ccncc4)c3)CC1)=C2c1ccc(Cl)cc1 | 370 | 
C=CC(=O)Nc1ccc2c(c1)CCC(CN1CCN(c3ccc(C(=O)O)cc3)CC1)=C2c1ccc(Cl)cc1OC | 959 | 

Structure (SMILES) | Ki (BCL2A1/BID [2]) [nM] | also measured
C=CC(=O)Nc1ccc2c(c1)CCC(CN1CCN(c3ccc(C(=O)O)cc3)CC1)=C2c1ccccc1Cl | 409 | 
C=CC(=O)Nc1ccc2c(c1)CCC(CN1CCN(c3ccc(C(=O)O)cc3)CC1)=C2c1ccn[nH]1 | > 20000 | 
C=CC(=O)N(C)c1ccc2c(c1)CCC(CN1CCN(c3ccc(C(=O)O)cc3)CC1)=C2c1ccc(Cl)cc1CC | 218 | 
C=CC(=O)Nc1ccc2c(c1)CCC(CN1CCN(c3ccc(C(=O)O)cc3-c3ccncc3)CC1)=C2c1ccc(Cl)cc1 | > 20000 | 
C=CC(=O)Nc1ccc2c(c1)CCC(CN1CCN(c3ccc(C(=O)O)cc3)CC1)=C2c1ccc(O)cc1 | > 20000 | 
C=CC(=O)Nc1ccc2c(c1)CCC(CN1CCN(c3ccc(C(=O)O)c(-c4ccccc4)c3)CC1)=C2c1ccc(Cl)cc1 | 178 | 
C=CC(=O)Nc1ccc2c(c1)CCC(CN1CCN(c3ccc(C(=O)O)c(Oc4cnc5[nH]ccc5c4)c3)CC1)=C2c1ccc(Cl)cc1 | 127 | IC50 (Pfeiffer): 10600 nM; Ki [3]: 2360 nM; IC50 (MV4-11): 19900 nM
C=CC(=O)N(CC)Cc1ccc2c(c1)CCC(CN1CCN(c3ccc(C(=O)O)cc3)CC1)=C2c1ccc(Cl)cc1 | 335 | 
C=CC(=O)Nc1ccc2c(c1)CCC(CN1CCN(c3ccc(C(=O)O)cc3)CC1)=C2Br | > 20000 | 
C=CC(=O)N(CCC)c1ccc2c(c1)CCC(CN1CCN(c3ccc(C(=O)O)cc3)CC1)=C2c1ccc(Cl)cc1CC | 124 | Ki [3]: 4400 nM
C=CC(=O)Nc1ccc2c(c1)CCC(CN1CCN(c3ccc(C(=O)O)cc3)CC1)=C2c1ccc(Cl)cc1 | 525 | 
C=CC(=O)NCc1ccc2c(c1)CCC(CN1CCN(c3ccc(C(=O)O)cc3)CC1)=C2c1ccc(Cl)cc1 | 913 | 
C=CC(=O)Nc1ccc2c(c1)CCC(CN1CCN(c3ccc(C(=O)O)cc3)CC1)=C2c1cn[nH]c1 | > 20000 | 
C=CC(=O)Nc1ccc2c(c1)CCC(CN1CCN(c3ccc(C(=O)O)cc3)CC1)=C2c1ccc(C(=O)O)cc1 | > 20000 | 
C=CC(=O)Nc1ccc2c(c1)CCC(CN1CCN(c3ccc(C(=O)OCC)cc3)CC1)=C2c1ccc(Cl)cc1 | > 20000 | 
C=CC(=O)Nc1ccc2c(c1)CCC(CN1CCN(c3ccc(C(=O)O)cc3)CC1)=C2c1ccc(Cl)cc1CC | 158 | 
CN(C)C/C=C/C(=O)Nc1cc2c(Nc3ccc(F)c(Cl)c3)ncnc2cc1O[C@H]1CCOC1 [AFATINIB] |  | half-life [5]: 13.2 min
C=CC(=O)Nc1cc(Nc2nccc(-c3cn(C)c4ccccc34)n2)c(OC)cc1N(C)CCN(C)C [OSIMERTINIB] |  | half-life [5]: 30.6 min
CC1(C)CCC(CN2CCN(c3ccc(C(=O)NS(=O)(=O)c4ccc(NCC5CCOCC5)c([N+](=O)[O-])c4)c(Oc4cnc5[nH]ccc5c4)c3)CC2)=C(c2ccc(Cl)cc2)C1 [VENETOCLAX] |  | IC50 (Pfeiffer): 6260 nM; Ki [3]: 3750 nM; IC50 (MV4-11): 440 nM; Ki [7]: > 444 nM
